Test results from patent US5550143A, “Heterocyclic compounds” (Adir et Compagnie, priority 1992, dated 1996).
Where two headings read alike, the source gives them in different places.

Columns and labels:
[1] = system: TNF; experiment: Inhibition of the production of TNF in mice treated with LPS (amount of TNF in the serum); assay type: in vivo; details: Mus musculus, 1 h; for inhibition in vivo at 50 mg/kg: oral, 30 min before LPS 2.5 μg i.p., compared with control group which received only LPS, read-out: % inhibition of the production of TNF after oral admin.
Method: The test is carried out on mice. Thirty minutes after the intraperitoneal or oral administration of the molecule to be tested, the mice are treated intraperitoneally with 2.5 μg of LPS from Escherichia coli. The amount of TNF in the serum is measured after 1 hour by a biological method.

[2] = target: T1, Procine pancreatic PLA2 (Sus scrofa, UniProt P00592); experiment: Inhibition of phospholipase PLA2 activity (E. coli membranes labelled with tritiated oleic acid); assay type: biochemical, pigs; details: read-out: % Inhibition at 1 mM
T1 construct: from tissue; host or cells: porcine pancreas
T1 sequence (P00592 23-146): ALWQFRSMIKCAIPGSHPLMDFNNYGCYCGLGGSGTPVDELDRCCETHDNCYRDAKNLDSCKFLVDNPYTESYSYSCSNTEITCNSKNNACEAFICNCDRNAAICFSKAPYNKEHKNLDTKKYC
Method: PLA2 hydrolyses cell membrane phospholipids by freeing arachidonic acid (AA). Inhibition of that enzyme brings about a reduction in the amount of non-esterified free AA from which metabolites, such as leucotrienes and pro-inflammatory prostaglandins, are produced. The PLA2 activity is measured by using as substrate E. coli membranes labelled with tritiated oleic acid. Procine pancreatic PLA2 is incubated with the preparation for 30 minutes at 37° C. After centrifugation, the radioactivity of the supernatant is counted. The inhibitory activity of the compound (1 mM) is expressed in relation to the control.

[3] = system: corticosteronemia; experiment: Measurement of corticosteronemia after administration of IL-1; assay type: in vivo, mice; details: for Reduction in hypercorticosteronemia compared with control / Hypercorticosteronemia after admin. IL-1: 30 min before 1 μg IL-1 i.p.; for Hypercorticosteronemia after admin. IL-1: measured 2 hours later
Method: Thirty minutes after the intraperitoneal administration of the molecule to be tested, the mice are treated with 1 μg of IL-1 injected intraperitoneally. Corticosteronemia is determined 2 hours later by a suitable technique. Under the same conditions, the compound and then a saline solution are administered intraperitoneally to a control group.

[4] = system: TNF; experiment: Peripheral effect: amount of TNF in serum and brain of rats after intracerebroventricular LPS; assay type: in vivo; details: Example 1 i.p. 8 mg/kg, FIG. 1
Text: In comparison with chlorpromazine, the compounds of the invention have only a peripheral effect.

[5] = Hypotensive effect in rats; assay type: in vivo; details: 20 mg/kg intraperitoneally
[6] = system: LPS shock; experiment: Protective effect in respect of LPS shock (% survival of mice after administration of LPS); assay type: in vivo; details: 30 min before LPS 1 μg
Method: The test is carried out on mice. The compound to be tested is administered intraperitoneally or orally. In the first protocol (i.p.), the compound is administered 30 minutes before the injection of 1 μg of LPS into mice. The mortality is determined 72 hours later.

[7] = system: spontaneous motor activity; experiment: Locomotive activity in mice (spontaneous motor activity); assay type: in vivo; details: for Number of movements (as a % compared with a control group): 30 min before test, 15 min, ns p > 0.05, ** p < 0.01
Method: This test consists in determining the spontaneous motor activity of mice placed in an enclosure that constitutes a new environment and is equipped with a system of infra-red rays, the interruption of which when the animal passes through serves as a measurement criterion ("Activity monitor" Digiscan-Omnitech Electronics, Sufraco France).
The molecules are administered intraperitoneally 30 minutes before the test at doses of 1, 2, 2.5, 4, 5 and 10 mg/kg. The locomotive activity (number of movements) is measured for 15 minutes.

[8] = ip, read-out: % inhibition of the production of TNF after i.p. admin.
[9] = 1 mM, 30 minutes at 37° C., relative to control

Row | Structure (SMILES) | hypotension [5] | inhibition in vivo at 50 mg/kg [1] | inhibition in vivo at 5 mg/kg [1, 8] | Reduction in hypercorticosteronemia compared with control ([3]; 5 mg/kg i.p.) | Hypercorticosteronemia after admin. IL-1 ([3]; 5 mg/kg i.p.) | further results
1 | CN(C)CCCN1c2ccccc2Sc2ccc(Cl)cc21 [Chlorpromazine, reference compound] | severe hypotension from the 15th minute onwards | – | – | – | – | inhibition in vivo at 4 mg/kg [1, 8]: 100%; inhibition at 1000 µM [2]: 76%; Reduction in hypercorticosteronemia compared with control ([3]; 4 mg/kg i.p.): ~86%; Reduction in hypercorticosteronemia compared with control ([3]; 4 mg/kg i.p., listed as Chloropromazine): 85.7%; Hypercorticosteronemia after admin. IL-1 ([3]; 4 mg/kg i.p.): 63 ng/ml serum; passage through the blood/brain barrier ([3]; demonstrated by determination of corticosteronemia after IL-1): crosses the blood/brain barrier; amount of TNF in the brain (rats, intracerebroventricular LPS) ([4]; brain): the amount in the brain, as is observed in rats treated with chlorpromazine; amount of TNF in the serum (rats, intracerebroventricular LPS) ([4]; 8 mg/kg): reduces the amount of TNF in the serum, as does chlorpromazine; % survival 72 h after i.p. administration ([6]; 1 mg/kg): 36%; % survival 72 h after i.p. administration ([6]; 4 mg/kg): 77%; Number of movements (as a % compared with a control group) ([7]; IP 1 mg/kg): -20%; Number of movements (as a % compared with a control group) ([7]; IP 2 mg/kg): -58%; Number of movements (as a % compared with a control group) ([7]; IP 4 mg/kg): -64%; sedative action (in words) ([7]; i.p., chlorpromazine at 2 mg/kg and above): very sedative at 2 mg/kg and above
2 | C[N+](C)(C)CCCN1c2ccccc2Sc2ccc(Cl)cc21.[Br-] [Example 1, N-[3-(2-chlorophenothiazin-10-yl)propyl]trimethylammonium bromide] | No hypotension is observed | 68% | 75% | 11.8% | 389 ng/ml serum | inhibition at 1000 µM [2, 9]: 72%; amount of TNF in the serum (rats, intracerebroventricular LPS) [4]: reduces the amount of TNF in the serum; % survival 72 h after i.p. administration ([6]; 5 mg/kg): 80%; Number of movements (as a % compared with a control group) ([7]; IP 5 mg/kg): -20%; Number of movements (as a % compared with a control group) ([7]; IP 10 mg/kg): -9%
3 | C[N+](C)(C)CCCN1c2ccccc2[S+]([O-])c2ccc(Cl)cc21.[Br-] (stereo not drawn) [Example 2, N-[3-(2-chloro-5-oxo-phenothiazin-10-yl)propyl]trimethylammonium bromide] | No hypotension is observed | 60% | 50% | 5.4% | 417 ng/ml serum | –
4 | C[N+](C)(C)CCCN1c2ccccc2S(=O)(=O)c2ccc(Cl)cc21 [Example 3, N-[3-(2-chloro-5-dioxo-phenothiazin-10-yl)propyl]trimethylammonium bromide] | – | – | 69% | – | – | –
5 | CC(C)[N+](C)(C)CCCN1c2ccccc2Sc2ccc(Cl)cc21 [Example 6, N-[3-(2-chlorophenothiazin-10-yl)propyl] dimethylisopropylammonium bromide] | – | 38% | – | – | – | –
6 | CCCC[N+](C)(C)CCCN1c2ccccc2Sc2ccc(Cl)cc21.[Br-] [Example 7, N-[3-(2-chlorophenothiazin-10-yl)propyl] butyldimethylammonium bromide] | No hypotension is observed | 72% | 95% | 11.8% | 389 ng/ml serum | inhibition at 1000 µM [2, 9]: 97%; % survival 72 h after i.p. administration ([6]; 5 mg/kg): 40%; Number of movements (as a % compared with a control group) ([7]; IP 5 mg/kg): -43%; Number of movements (as a % compared with a control group) ([7]; IP 10 mg/kg): -63%; Number of movements (as a % compared with a control group) ([7]; IP 2,5 mg/kg): -27%
7 | CCCC[N+](C)(C)CCCN1c2ccccc2[S+]([O-])c2ccc(Cl)cc21.[Br-] (stereo not drawn) [Example 8, N-[3-(2-chloro-5-oxo-phenothiazin-10-yl)propyl] butyldimethylammonium bromide] | No hypotension is observed | 73% | 71% | 19.3% | 356 ng/ml serum | –
8 | CCCC[N+](C)(C)CCCN1c2ccccc2S(=O)(=O)c2ccc(Cl)cc21 [Example 9, N-[3-(2-chloro-5-dioxo-phenothiazin-10-yl)propyl] butyldimethylammonium bromide] | – | – | 75% | – | – | –
9 | C[N+](C)(CCCN1c2ccccc2Sc2ccc(Cl)cc21)Cc1ccccc1.[Br-] [Example 10, N-[3-(2-chlorophenothiazin-10-yl)propyl] benzyldimethylammonium bromide] | – | – | 27% | 0.2% | 440 ng/ml serum | inhibition at 1000 µM [2, 9]: 98%; % survival 72 h after i.p. administration ([6]; 5 mg/kg): 60%
10 | O=C(O)CCCN1c2ccccc2Sc2ccc(Cl)cc21 [Example 15, 4-(2-chlorophenothiazin-10-yl)butanoic acid] | – | 55% | – | – | – | –
11 | CC(C)=CCC/C(C)=C/CN1c2ccccc2Sc2ccc(Cl)cc21 [Example 26, 2-chloro-10-[(2E)-1-(3,7-dimethylocta-2,6-dienyl)]phenothiazine] | – | 55% | – | – | – | –
12 | CC(C)(C)C1CCC2(CC1)CCN(CCCN1c3ccccc3Sc3ccc(Cl)cc31)C2 (stereo not drawn) [Example 27, 2-[3-(2-chlorophenothiazin-10-yl)propyl]-8-tert-butyl-2-azoniaspiro[4.5]decane chloride] | – | 26% | – | – | – | –
13 | CCN(CC)CCCC(C)Nc1c2ccc(Cl)cc2nc2ccc(OC)cc12 (stereo not drawn) [Mepacrine, reference compound] | – | – | – | – | – | inhibition at 1000 µM [2]: 67%
